Test results taken from article PMC4710522, “A Novel Triazolopyridine-Based Spleen Tyrosine Kinase Inhibitor That Arrests Joint Inflammation” (PLoS ONE, 2016).
Several values for one entry are separate records, joined by “and”; a condition that tells them apart may be missing. Equal entries are not always repeated.

Columns and labels:
Test in all cases: SelectScreen kinase assay
Type in all cases: biochemical
[1] = target: T1, SRPK1_h (Homo sapiens, UniProt Q96SB4); details: KM ATP, read-out: % control
T1 construct: purchased Life Technologies (Invitrogen) SelectScreen, Z'-LYTE / Adapta
Method in brief: (§1)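 Kinase activity measured by Z'-Lyte or Adapta protocols. Single-point testing used 3 µM compound with ATP at the enzyme's KM, or at 10 or 100 µM as indicated. Values given as % control versus DMSO-only wells (100%).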

[2] = target: T2, ROCK-II_h (Homo sapiens, UniProt O75116); details: KM ATP, read-out: % control
T2 construct: purchased Life Technologies (Invitrogen) SelectScreen, Z'-LYTE / Adapta
Method in brief: as §1

[3] = target: T3, ALK4_h (Homo sapiens, UniProt P36896); details: KM ATP, read-out: % control
T3 construct: purchased Life Technologies (Invitrogen) SelectScreen, Z'-LYTE / Adapta
Method in brief: as §1

[4] = target: T4, Plk1_h (Homo sapiens, UniProt P53350); details: KM ATP, read-out: % control
T4 construct: purchased Life Technologies (Invitrogen) SelectScreen, Z'-LYTE / Adapta
Method in brief: as §1

[5] = target: T5, MYLK2_h (Homo sapiens, UniProt Q9H1R3); details: KM ATP, read-out: % control
T5 construct: purchased Life Technologies (Invitrogen) SelectScreen, Z'-LYTE / Adapta
Method in brief: as §1

[6] = target: T6, PKA_h (Homo sapiens, UniProt P17612); details: KM ATP, read-out: % control
T6 construct: purchased Life Technologies (Invitrogen) SelectScreen, Z'-LYTE / Adapta
Method in brief: as §1

[7] = target: T7, EGFR_L858R_h (Homo sapiens, UniProt P00533, L858R); details: KM ATP, read-out: % control
T7 construct: purchased Life Technologies (Invitrogen) SelectScreen, Z'-LYTE / Adapta
Method in brief: as §1

[8] = target: T8, SRMS_h (Homo sapiens, UniProt Q9H3Y6); details: KM ATP, read-out: % control
T8 construct: purchased Life Technologies (Invitrogen) SelectScreen, Z'-LYTE / Adapta
Method in brief: as §1

[9] = target: T9, LYN-B_h (Homo sapiens, UniProt P07948); details: KM ATP, read-out: % control
T9 construct: purchased Life Technologies (Invitrogen) SelectScreen, Z'-LYTE / Adapta
Method in brief: as §1

[10] = target: T10, PAK3_h (Homo sapiens, UniProt O75914); details: KM ATP, read-out: % control
T10 construct: purchased Life Technologies (Invitrogen) SelectScreen, Z'-LYTE / Adapta
Method in brief: as §1

[11] = target: T11, Yes_h (Homo sapiens, UniProt P07947); details: KM ATP, read-out: % control
T11 construct: purchased Life Technologies (Invitrogen) SelectScreen, Z'-LYTE / Adapta
Method in brief: as §1

[12] = target: T12, MSK1_h (Homo sapiens, UniProt O75582); details: KM ATP, read-out: % control
T12 construct: purchased Life Technologies (Invitrogen) SelectScreen, Z'-LYTE / Adapta
Method in brief: as §1

[13] = target: T13, CK1-epsilon_h (Homo sapiens, UniProt P49674); details: KM ATP, read-out: % control
T13 construct: purchased Life Technologies (Invitrogen) SelectScreen, Z'-LYTE / Adapta
Method in brief: as §1

[14] = target: T14, SRPK2_h (Homo sapiens, UniProt P78362); details: KM ATP, read-out: % control
T14 construct: purchased Life Technologies (Invitrogen) SelectScreen, Z'-LYTE / Adapta
Method in brief: as §1

[15] = target: T15, PKB-gamma_h (Homo sapiens, UniProt Q9Y243); details: KM ATP, read-out: % control
T15 construct: purchased Life Technologies (Invitrogen) SelectScreen, Z'-LYTE / Adapta
Method in brief: as §1

[16] = target: T16, AMPK_A2_B1_G1_h (Homo sapiens, UniProt P54646); details: KM ATP, read-out: % control
T16 construct: purchased Life Technologies (Invitrogen) SelectScreen, Z'-LYTE / Adapta
Method in brief: as §1

[17] = target: T17, PKB-alpha_h (Homo sapiens, UniProt P31749); details: KM ATP, read-out: % control
T17 construct: purchased Life Technologies (Invitrogen) SelectScreen, Z'-LYTE / Adapta
Method in brief: as §1

[18] = target: T18, ROCK-I_h (Homo sapiens, UniProt Q13464); details: KM ATP, read-out: % control
T18 construct: purchased Life Technologies (Invitrogen) SelectScreen, Z'-LYTE / Adapta
Method in brief: as §1

[19] = target: PDGFR-alpha_h (Homo sapiens, UniProt P16234)
Method in brief: as §1

[20] = target: T19, Fer_h (Homo sapiens, UniProt P16591); details: KM ATP, read-out: % control
T19 construct: purchased Life Technologies (Invitrogen) SelectScreen, Z'-LYTE / Adapta
Method in brief: as §1

[21] = target: T20, Abl_T315I_h (Homo sapiens, UniProt P00519, T315I); details: KM ATP, read-out: % control
T20 construct: purchased Life Technologies (Invitrogen) SelectScreen, Z'-LYTE / Adapta
Method in brief: as §1

[22] = target: T21, mTOR_h (Homo sapiens, UniProt P42345); details: KM ATP, read-out: % control
T21 construct: purchased Life Technologies (Invitrogen) SelectScreen, Z'-LYTE / Adapta
Method in brief: as §1

[23] = target: T22, Lck_h (Homo sapiens, UniProt P06239); details: KM ATP, read-out: % control
T22 construct: purchased Life Technologies (Invitrogen) SelectScreen, Z'-LYTE / Adapta
Method in brief: as §1

[24] = target: T23, BTK_h (Homo sapiens, UniProt Q06187); details: KM ATP, read-out: % control
T23 construct: purchased Life Technologies (Invitrogen) SelectScreen, Z'-LYTE / Adapta
Method in brief: as §1

[25] = target: T24, MATK_h (Homo sapiens, UniProt P42679); details: KM ATP, read-out: % control
T24 construct: purchased Life Technologies (Invitrogen) SelectScreen, Z'-LYTE / Adapta
Method in brief: as §1

[26] = target: T25, PTK5_h (Homo sapiens, UniProt P42685); details: KM ATP, read-out: % control
T25 construct: purchased Life Technologies (Invitrogen) SelectScreen, Z'-LYTE / Adapta
Method in brief: as §1

[27] = target: T26, EphB3_h (Homo sapiens, UniProt P54753); details: KM ATP, read-out: % control
T26 construct: purchased Life Technologies (Invitrogen) SelectScreen, Z'-LYTE / Adapta
Method in brief: as §1

[28] = target: T27, Tie2_h (Homo sapiens, UniProt Q02763); details: KM ATP, read-out: % control
T27 construct: purchased Life Technologies (Invitrogen) SelectScreen, Z'-LYTE / Adapta
Method in brief: as §1

[29] = target: T28, Mer_h (Homo sapiens, UniProt Q12866); details: KM ATP, read-out: % control
T28 construct: purchased Life Technologies (Invitrogen) SelectScreen, Z'-LYTE / Adapta
Method in brief: as §1

[30] = target: Tyk2_h (Homo sapiens, UniProt P29597)
Method in brief: as §1

[31] = target: T29, CK1-alpha1_h (Homo sapiens, UniProt P48729); details: KM ATP, read-out: % control
T29 construct: purchased Life Technologies (Invitrogen) SelectScreen, Z'-LYTE / Adapta
Method in brief: as §1

[32] = target: T30, MARK2_h (Homo sapiens, UniProt Q7KZI7); details: KM ATP, read-out: % control
T30 construct: purchased Life Technologies (Invitrogen) SelectScreen, Z'-LYTE / Adapta
Method in brief: as §1

[33] = target: T31, CSK_h (Homo sapiens, UniProt P41240); details: KM ATP, read-out: % control
T31 construct: purchased Life Technologies (Invitrogen) SelectScreen, Z'-LYTE / Adapta
Method in brief: as §1

[34] = target: T32, PAK4_h (Homo sapiens, UniProt O96013); details: KM ATP, read-out: % control
T32 construct: purchased Life Technologies (Invitrogen) SelectScreen, Z'-LYTE / Adapta
Method in brief: as §1

[35] = 3 µM, KM ATP, read-out: % control
[36] = 10-point dose-response, commercial vendor

Tyk2_h, sequence (P29597 whole entry): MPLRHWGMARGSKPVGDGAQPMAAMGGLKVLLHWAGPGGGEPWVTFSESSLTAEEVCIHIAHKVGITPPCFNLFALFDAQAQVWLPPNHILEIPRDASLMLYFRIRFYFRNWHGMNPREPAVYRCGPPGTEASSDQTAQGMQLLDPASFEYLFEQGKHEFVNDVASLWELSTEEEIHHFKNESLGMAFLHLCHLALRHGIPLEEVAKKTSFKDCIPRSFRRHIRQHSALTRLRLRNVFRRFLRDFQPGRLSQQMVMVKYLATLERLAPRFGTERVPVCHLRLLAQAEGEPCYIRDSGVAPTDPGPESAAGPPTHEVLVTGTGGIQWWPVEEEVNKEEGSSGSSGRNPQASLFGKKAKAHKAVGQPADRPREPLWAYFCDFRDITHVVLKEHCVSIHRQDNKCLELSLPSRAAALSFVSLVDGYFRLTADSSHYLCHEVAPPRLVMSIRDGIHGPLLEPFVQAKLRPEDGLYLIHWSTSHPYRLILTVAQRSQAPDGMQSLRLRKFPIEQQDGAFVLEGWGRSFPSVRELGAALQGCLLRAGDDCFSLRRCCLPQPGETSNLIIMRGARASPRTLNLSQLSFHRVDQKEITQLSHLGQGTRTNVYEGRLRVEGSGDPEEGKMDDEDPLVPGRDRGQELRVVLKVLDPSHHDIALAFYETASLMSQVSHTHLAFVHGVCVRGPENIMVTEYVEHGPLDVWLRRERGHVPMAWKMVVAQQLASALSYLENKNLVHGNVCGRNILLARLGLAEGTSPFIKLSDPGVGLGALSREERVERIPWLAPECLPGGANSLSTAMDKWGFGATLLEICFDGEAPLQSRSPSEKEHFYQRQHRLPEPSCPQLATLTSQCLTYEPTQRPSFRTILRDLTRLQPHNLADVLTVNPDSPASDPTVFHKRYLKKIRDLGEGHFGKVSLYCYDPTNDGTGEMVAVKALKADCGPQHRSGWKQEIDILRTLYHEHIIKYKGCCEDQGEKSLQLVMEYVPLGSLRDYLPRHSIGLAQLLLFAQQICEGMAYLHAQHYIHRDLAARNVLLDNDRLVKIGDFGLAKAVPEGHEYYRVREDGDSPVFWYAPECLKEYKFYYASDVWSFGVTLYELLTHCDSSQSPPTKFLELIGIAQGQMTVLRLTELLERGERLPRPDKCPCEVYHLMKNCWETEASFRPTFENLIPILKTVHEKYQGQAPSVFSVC
PDGFR-alpha_h, sequence (P16234 24-1089): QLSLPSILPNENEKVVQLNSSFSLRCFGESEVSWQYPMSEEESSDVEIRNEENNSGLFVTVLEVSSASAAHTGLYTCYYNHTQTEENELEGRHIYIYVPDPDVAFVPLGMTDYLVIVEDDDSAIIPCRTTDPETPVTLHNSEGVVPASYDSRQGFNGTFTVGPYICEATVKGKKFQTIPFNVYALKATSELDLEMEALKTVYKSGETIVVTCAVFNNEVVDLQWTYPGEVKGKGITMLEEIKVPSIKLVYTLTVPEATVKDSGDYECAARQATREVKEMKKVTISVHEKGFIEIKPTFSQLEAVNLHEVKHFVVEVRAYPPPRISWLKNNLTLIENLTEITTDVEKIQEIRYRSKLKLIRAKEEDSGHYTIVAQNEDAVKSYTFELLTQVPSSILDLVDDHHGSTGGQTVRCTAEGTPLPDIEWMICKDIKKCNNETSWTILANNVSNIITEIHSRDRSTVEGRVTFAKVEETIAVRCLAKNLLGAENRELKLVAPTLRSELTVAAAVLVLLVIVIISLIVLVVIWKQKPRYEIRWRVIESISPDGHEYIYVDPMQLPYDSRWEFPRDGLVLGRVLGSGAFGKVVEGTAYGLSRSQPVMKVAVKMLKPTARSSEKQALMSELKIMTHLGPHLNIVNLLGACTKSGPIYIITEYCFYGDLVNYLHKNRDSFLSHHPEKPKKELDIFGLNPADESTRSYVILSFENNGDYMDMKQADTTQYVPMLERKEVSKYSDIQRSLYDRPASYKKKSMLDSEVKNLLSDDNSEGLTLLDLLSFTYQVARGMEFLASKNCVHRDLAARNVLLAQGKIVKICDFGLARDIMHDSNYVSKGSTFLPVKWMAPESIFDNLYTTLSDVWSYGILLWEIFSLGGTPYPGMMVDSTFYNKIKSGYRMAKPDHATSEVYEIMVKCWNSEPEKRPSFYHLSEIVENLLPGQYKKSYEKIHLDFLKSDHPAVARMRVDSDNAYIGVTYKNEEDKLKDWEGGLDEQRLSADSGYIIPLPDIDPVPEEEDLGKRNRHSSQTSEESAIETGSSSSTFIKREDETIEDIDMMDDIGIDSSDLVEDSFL
T23 sequence (Q06187 whole entry): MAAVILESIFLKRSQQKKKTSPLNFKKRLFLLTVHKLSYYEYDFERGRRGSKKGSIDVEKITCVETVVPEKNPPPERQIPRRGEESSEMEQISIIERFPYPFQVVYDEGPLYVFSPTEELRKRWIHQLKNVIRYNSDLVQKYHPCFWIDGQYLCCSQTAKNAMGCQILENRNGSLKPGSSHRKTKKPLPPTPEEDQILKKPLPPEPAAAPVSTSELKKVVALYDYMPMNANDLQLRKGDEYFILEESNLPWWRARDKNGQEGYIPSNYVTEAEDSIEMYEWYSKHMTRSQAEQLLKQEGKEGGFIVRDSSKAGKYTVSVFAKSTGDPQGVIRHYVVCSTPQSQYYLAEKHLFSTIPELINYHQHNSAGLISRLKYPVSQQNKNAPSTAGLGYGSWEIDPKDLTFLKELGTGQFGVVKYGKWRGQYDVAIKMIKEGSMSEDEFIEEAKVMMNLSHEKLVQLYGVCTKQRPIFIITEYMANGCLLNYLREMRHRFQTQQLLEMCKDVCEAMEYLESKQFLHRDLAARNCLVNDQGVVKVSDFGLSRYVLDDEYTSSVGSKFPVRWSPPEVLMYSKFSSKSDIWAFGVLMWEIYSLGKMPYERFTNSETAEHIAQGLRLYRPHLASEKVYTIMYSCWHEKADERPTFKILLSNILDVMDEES
T7 sequence (P00533 25-1210 L858R): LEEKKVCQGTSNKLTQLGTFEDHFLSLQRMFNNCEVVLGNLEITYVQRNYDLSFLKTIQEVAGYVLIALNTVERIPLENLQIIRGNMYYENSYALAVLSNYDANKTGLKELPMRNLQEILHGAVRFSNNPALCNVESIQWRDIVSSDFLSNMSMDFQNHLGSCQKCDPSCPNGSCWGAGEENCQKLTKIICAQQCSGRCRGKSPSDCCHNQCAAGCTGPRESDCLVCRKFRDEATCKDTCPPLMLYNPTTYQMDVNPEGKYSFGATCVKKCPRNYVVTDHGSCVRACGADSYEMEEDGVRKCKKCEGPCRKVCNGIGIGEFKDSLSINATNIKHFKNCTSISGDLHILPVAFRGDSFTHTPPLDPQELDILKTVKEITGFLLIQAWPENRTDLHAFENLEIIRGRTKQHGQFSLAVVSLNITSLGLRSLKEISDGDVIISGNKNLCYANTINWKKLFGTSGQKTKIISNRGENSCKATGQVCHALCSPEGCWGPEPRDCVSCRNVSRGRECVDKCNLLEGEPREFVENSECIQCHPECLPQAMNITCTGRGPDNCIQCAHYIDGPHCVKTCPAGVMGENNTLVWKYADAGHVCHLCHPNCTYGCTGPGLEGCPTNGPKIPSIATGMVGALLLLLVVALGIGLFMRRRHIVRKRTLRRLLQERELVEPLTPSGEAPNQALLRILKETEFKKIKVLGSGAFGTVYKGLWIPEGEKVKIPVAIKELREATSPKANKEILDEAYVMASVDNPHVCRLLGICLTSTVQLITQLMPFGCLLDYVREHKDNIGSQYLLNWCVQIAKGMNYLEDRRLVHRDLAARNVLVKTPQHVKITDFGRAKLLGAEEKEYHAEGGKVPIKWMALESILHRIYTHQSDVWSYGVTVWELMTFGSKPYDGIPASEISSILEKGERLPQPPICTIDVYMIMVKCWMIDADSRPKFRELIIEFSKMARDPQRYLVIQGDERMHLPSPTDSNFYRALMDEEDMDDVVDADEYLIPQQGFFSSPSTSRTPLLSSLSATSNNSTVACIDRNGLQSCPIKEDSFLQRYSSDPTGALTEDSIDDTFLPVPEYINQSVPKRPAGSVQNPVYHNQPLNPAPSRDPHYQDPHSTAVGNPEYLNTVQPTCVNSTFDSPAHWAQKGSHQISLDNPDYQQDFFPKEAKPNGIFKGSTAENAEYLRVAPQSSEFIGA
T22 sequence (P06239 whole entry): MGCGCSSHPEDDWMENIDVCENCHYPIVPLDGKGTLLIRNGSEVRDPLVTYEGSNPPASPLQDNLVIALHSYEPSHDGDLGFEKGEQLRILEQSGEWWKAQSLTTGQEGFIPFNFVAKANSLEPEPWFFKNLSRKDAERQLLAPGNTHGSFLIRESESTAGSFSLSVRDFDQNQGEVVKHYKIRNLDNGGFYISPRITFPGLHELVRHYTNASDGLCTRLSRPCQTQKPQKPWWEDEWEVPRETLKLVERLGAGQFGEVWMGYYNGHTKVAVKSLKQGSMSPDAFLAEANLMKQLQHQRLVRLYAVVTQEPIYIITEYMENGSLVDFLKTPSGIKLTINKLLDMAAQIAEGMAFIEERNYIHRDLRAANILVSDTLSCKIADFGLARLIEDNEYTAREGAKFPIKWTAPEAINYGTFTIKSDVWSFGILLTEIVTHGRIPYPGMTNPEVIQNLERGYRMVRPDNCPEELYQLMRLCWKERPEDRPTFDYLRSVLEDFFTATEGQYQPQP
T15 sequence (Q9Y243 whole entry): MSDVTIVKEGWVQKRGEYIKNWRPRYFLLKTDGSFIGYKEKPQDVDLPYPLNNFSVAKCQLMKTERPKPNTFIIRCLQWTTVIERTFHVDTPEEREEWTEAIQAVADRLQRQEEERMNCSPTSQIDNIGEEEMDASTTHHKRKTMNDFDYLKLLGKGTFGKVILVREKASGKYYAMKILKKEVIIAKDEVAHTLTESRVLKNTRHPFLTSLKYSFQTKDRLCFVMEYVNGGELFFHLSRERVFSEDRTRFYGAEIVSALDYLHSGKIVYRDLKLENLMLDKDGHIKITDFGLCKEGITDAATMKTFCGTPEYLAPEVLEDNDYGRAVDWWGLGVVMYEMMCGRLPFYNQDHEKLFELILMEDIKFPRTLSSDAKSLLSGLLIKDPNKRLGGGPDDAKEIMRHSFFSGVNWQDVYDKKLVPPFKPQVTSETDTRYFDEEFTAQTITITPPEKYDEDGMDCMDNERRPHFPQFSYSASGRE

SMILES: c1cc(CC2CCOCC2)n2nc(Nc3ccc4c(NC5CCOCC5)n[nH]c4c3)nc2c1 [CC-509, [3-(2H-3,4,5,6-tetrahydropyran-4-ylamino)(1H-indazol-6-yl)][5-(2H-3,4,5,6-tetrahydropyran-4-ylmethyl)(2H-1,2,4-triazolo[1,5-a]pyridin-2-yl)]amine]
- remaining activity at 3 µM [1]: 98%
- remaining activity at 3 µM [2]: 69%
- remaining activity at 3 µM [3]: 107%
- remaining activity at 3 µM [4]: 88%
- remaining activity at 3 µM [5]: 80%
- remaining activity at 3 µM [6]: 93%
- remaining activity at 3 µM [7]: 101%
- remaining activity at 3 µM [8]: 90%
- remaining activity at 3 µM [9]: 39%
- remaining activity at 3 µM [10]: 97%
- remaining activity at 3 µM [11]: 54%
- remaining activity at 3 µM [12]: 94%
- remaining activity at 3 µM [13]: 89%
- remaining activity at 3 µM [14]: 111%
- remaining activity at 3 µM [15]: 99%
- remaining activity at 3 µM [16]: 63%
- remaining activity at 3 µM [17]: 100%
- remaining activity at 3 µM [18]: 70%
- remaining activity at 3 µM [19, 35]: 4%
- IC50 [19, 36]: 204 nM
- remaining activity at 3 µM [20]: 40%
- remaining activity at 3 µM [21]: 34%
- remaining activity at 3 µM [22]: 92%
- remaining activity at 3 µM [23]: 39%
- remaining activity at 3 µM [24]: 72%
- remaining activity at 3 µM [25]: 102%
- remaining activity at 3 µM [26]: 86%
- remaining activity at 3 µM [27]: 42%
- remaining activity at 3 µM [28]: 87%
- remaining activity at 3 µM [29]: 90%
- remaining activity at 3 µM [30, 35]: 3%
- IC50 [30, 36]: 110 nM and 112 nM
- remaining activity at 3 µM [31]: 88%
- remaining activity at 3 µM [32]: 55%
- remaining activity at 3 µM [33]: 70%
- remaining activity at 3 µM [34]: 87%
